The source of these data is US20260174786A1, “A NITROGEN-CONTAINING SPIROCYCLIC COMPOUND, PHARMACEUTICAL COMPOSITION AND USE THEREOF” (Prime Gene Therapeutics Co., Ltd., priority 2022, published 2026).

The test system of one data set is Caco-2 cells. Nature of the data set: Permeability experiment of Caco-2 cells. Particulars: Caco-2, 5 μM. The format is in vitro ADME. The method, then:
(§1) 1. Transwell plate preheating: before laying cells, adding 100 μL of culture medium to the upper layer of Transwell plate and 600 μL of culture medium to the lower layer of Transwell plate, Pre-incubating at 37° C. under 5% CO2 for 1 hour. 2. Treating Caco-2 cells by adding 100 μL of cell suspension (4×10^5 cells/mL) to each well, and cultivating in a 37° C., 5% CO2 incubator for 14-21 days. 3. Changing the cell culture medium every other day within 7 days, and changing it daily after 7 days. 4. Using EVOM3 to measure single-layer epithelial to epithelial resistance (TEER).
(§2) 1. Preheating HBSS (10 mM HEPES, pH 7.4) buffer, cleaning the upper and lower layers of Transwell plates twice each, and incubating at 37° C. for 30 minutes. 2. Working solution: Diluting the test compound HBSS buffer with 1 mM DMSO to 5 μM. 3. A-B direction: Adding 200 μL of 5 μM working solution to the upper layer and 600 μL of HBSS buffer solution to the lower layer; 4. B-A direction: Adding 600 μL of 5 μM working solution to the lower layer and 200 μL of HBSS buffer to the upper layer, and incubating for 2 hours. 5. C0 sample: Taking 100 μL of working solution to a sample plate containing 400 μL of methanol (internal standard). 6. After incubation for 2 hours, taking 100 μL from the upper and lower layers of the chamber to the sample plates containing 400 μL of methanol (internal standard). 7. Mixing and centrifuging, mixing the supernatant with a certain amount of water, and using the sample for LC-MS/MS data analysis. 8. After completing step 6, adding 200 μL of 100 μM fluorescent yellow solution to the upper chamber and 600 μL of HBSS buffer salt solution to the lower chamber. Incubating at 37° C. and 5% CO2 for 30 minutes, and taking out 50 μL of each into a black plate to read the fluorescence value. 9. Data analysis.

Data set [1] can be described thus: Permeability experiment of Caco-2 cells. It is filed as in vitro ADME. Particulars: human, pH 7.4, Caco-2, 5 μM. The method, then: as §1, §2
For orientation: Caco-2 cells form a polarised layer with tight junctions and transporters.

By Papp A→B is commonly meant the apparent permeability from the apical to the basolateral side of a cell layer. A high value points to fast passage. One may read the Papp B→A as how fast a substance crosses the layer from the basolateral side. Regarding `O=C(c1ccc(F)cn1)N1CC[C@@]2(C[C@@H](O)c3cc(-c4ccccc4C4CC4)ccc32)C1` [Example 21, ((1S,3R)-5-(2-cyclopropylphenyl)-3-hydroxy-2,3-dihydrospiro[indene-1,3′-pyrrolidine]-1′-yl)(5-fluoropyridin-2-yl)ketone], in the data set with Caco-2 cells, the “Recover A→B %” value is given as 49.40% and the “Recover B→A %” value is reported as 68.20%. In data set [1] (2 hours), this compound registered a Papp A→B at 2 h, 5 μM of 20.9 ×10⁻⁶ cm/s and a Papp B→A at 2 h, 5 μM of 9.58 ×10⁻⁶ cm/s. Besides, in data set [1] (read-out: External ratio), the efflux ratio at 2 h, 5 μM worked out at 0.46.
